Laboratory results: the supplement of paper PMC10307832

Columns and labels:
Experiment in all cases: relative viability (nuclei count vs DMSO), 5 days (fraction); higher = more cells survive
[1] = compound: COc1nc(N)nc2c1ncn2[C@@H]1O[C@H](CO)[C@@H](O)[C@@H]1O [Nelarabine] + NC(=O)Nc1cc(-c2cccc(F)c2)sc1C(=O)N[C@H]1CCCNC1 [AZD7762] (partner 0.2 µM)
In short: (§1)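 Lung cancer cell lines in 1536-well plates got either a single drug or a fixed anchor-drug dose together with five library-drug doses (not always all listed) in √10 steps, by pin tool, on the day after seeding. Nuclei were counted after 5 days, and relative viability is the treated-to-vehicle ratio of nuclei counts. Values are medians of duplicate plates.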

[2] = compound: C=CCn1c(=O)c2cnc(Nc3ccc(N4CCN(C)CC4)cc3)nc2n1-c1cccc(C(C)(C)O)n1 [Adavosertib] + COc1cccc2cc(-c3nc([C@H]4CC[C@H](C(=O)O)CC4)n4ncnc(N)c34)[nH]c12 [OSI-027] (partner 0.5 µM)
In short: as §1

[3] = compound: COc1nc(N)nc2c1ncn2[C@@H]1O[C@H](CO)[C@@H](O)[C@@H]1O [Nelarabine] + CS(=O)(=O)CCNCc1ccc(-c2ccc3ncnc(Nc4ccc(OCc5cccc(F)c5)c(Cl)c4)c3c2)o1 [Lapatinib] (partner 2 µM)
In short: as §1

[4] = compound: COc1nc(N)nc2c1ncn2[C@@H]1O[C@H](CO)[C@@H](O)[C@@H]1O [Nelarabine] + CCNC(=O)c1noc(-c2cc(C(C)C)c(O)cc2O)c1-c1ccc(CN2CCOCC2)cc1 [Luminespib] (partner 0.01 µM)
In short: as §1

| Cell Line | relative viability ([1]; first compound 0.01 µM) | relative viability ([1]; first compound 0.1 µM) | relative viability ([1]; first compound 0.3162 µM) | relative viability ([1]; first compound 1 µM) | relative viability ([2]; first compound 0.01 µM) | relative viability ([2]; first compound 0.03162 µM) | relative viability ([2]; first compound 0.1 µM) | relative viability ([2]; first compound 0.3162 µM) | relative viability ([3]; first compound 0.01 µM) | relative viability ([3]; first compound 0.1 µM) | relative viability ([3]; first compound 0.3162 µM) | relative viability ([3]; first compound 1 µM) | relative viability ([4]; first compound 0.01 µM) | relative viability ([4]; first compound 0.1 µM) | relative viability ([4]; first compound 0.3162 µM) | relative viability ([4]; first compound 1 µM) | relative viability ([1]; first compound 0.03162 µM) | relative viability ([3]; first compound 0.03162 µM) | relative viability ([4]; first compound 0.03162 µM) |
| --- | --- | --- | --- | --- | --- | --- | --- | --- | --- | --- | --- | --- | --- | --- | --- | --- | --- | --- | --- |
| LK-2 | 0.408 | 0.289 | 0.498 | 0.309 | 0.17 | 0.208 | 0.207 | 0.216 | 1.23 | 1.03 | 1.02 | 1.05 | 0.161 | 0.178 | 0.146 | 0.173 | – | – | – |
| LOU-NH91 | 0.868 | 0.78 | 0.732 | 0.69 | 0.65 | 0.707 | 0.742 | 0.677 | 0.817 | 0.692 | 0.775 | 0.788 | 0.392 | 0.354 | 0.346 | 0.356 | 0.69 | 0.633 | 0.45 |
| LU99A | 0.365 | 0.335 | 0.312 | 0.424 | 0.314 | 0.282 | 0.307 | 0.298 | 1.15 | 1.19 | 1.12 | 1.1 | 0.239 | 0.339 | 0.282 | 0.279 | 0.284 | 1.04 | 0.235 |
| LXF-289 | 1.22 | 1.02 | 1.17 | 1 | 0.809 | 0.678 | 0.721 | 0.938 | 0.97 | 0.884 | 0.941 | 0.903 | 0.792 | 0.659 | 0.832 | 0.578 | 1.14 | 0.883 | 0.655 |
| NCI-H23 | 0.205 | 0.241 | 0.232 | 0.25 | 0.604 | 0.631 | 0.553 | 0.327 | 1.5 | 1.06 | 1.17 | 1.18 | 0.226 | 0.23 | 0.225 | 0.21 | 0.227 | 1.1 | 0.201 |
| NCI-H322M | 0.559 | 0.522 | 0.595 | 0.507 | 0.621 | 0.547 | 0.451 | 0.312 | 0.653 | 0.529 | 0.604 | 0.602 | 0.917 | 0.79 | 0.834 | 0.967 | 0.553 | 0.581 | 0.84 |
| NCI-H358 | 0.605 | 0.386 | 0.501 | 0.586 | 0.786 | 0.913 | 0.637 | 0.326 | 0.518 | 0.421 | 0.405 | 0.431 | 0.409 | 0.28 | 0.308 | 0.309 | 0.395 | 0.436 | – |
| NCI-H460 | 0.79 | 0.616 | 0.558 | 0.323 | 0.758 | 0.667 | 0.561 | 0.341 | – | 1.84 | 1.62 | 1.27 | 0.0293 | 0.0352 | 0.0376 | 0.0317 | 0.626 | 1.76 | 0.0328 |
| NCI-H596 | 1.2 | 1.05 | 1.22 | 1.23 | 0.784 | 0.914 | 0.752 | 0.732 | 1.15 | 1.27 | 0.892 | 1.07 | 1.04 | 1.08 | 1.12 | 0.988 | 1.01 | 1.13 | 0.996 |
| NCI-H647 | 0.554 | 0.563 | 0.58 | 0.431 | 0.635 | 0.609 | 0.569 | 0.26 | 1.37 | 1.11 | 1.34 | 1.14 | 0.177 | 0.193 | 0.128 | 0.136 | 0.294 | 0.807 | 0.111 |
| NCI-H650 | 0.75 | 0.915 | 0.932 | 0.943 | 0.476 | 0.606 | 0.526 | 0.446 | 0.97 | 0.929 | 1.07 | 0.887 | 0.857 | 0.759 | 0.708 | 0.718 | 0.991 | 0.842 | 0.726 |
| NCI-H727 | 0.497 | 0.463 | 0.543 | 0.463 | 0.599 | 0.546 | 0.523 | 0.575 | 0.909 | 0.922 | 0.74 | 0.829 | 0.305 | 0.351 | 0.469 | 0.298 | 0.525 | 0.896 | 0.377 |
| NCI-H838 | 1.04 | 0.955 | 1 | 0.957 | 0.425 | 0.346 | 0.391 | 0.388 | 1.38 | 0.934 | 1.16 | 1.14 | 0.316 | 0.31 | 0.257 | 0.221 | 0.847 | 1.07 | 0.321 |
| NCI-H1355 | 0.935 | 0.657 | 0.804 | 0.822 | 0.396 | 0.387 | 0.364 | 0.355 | 1.14 | 0.929 | 0.993 | 1.07 | 0.763 | 0.667 | 0.629 | 0.713 | 0.608 | 0.7 | 0.618 |
| NCI-H1395 | 0.386 | 0.388 | 0.406 | 0.39 | 0.69 | 0.727 | 0.656 | 0.492 | 0.959 | 1.23 | 0.971 | 1.5 | 0.666 | 0.773 | 0.707 | 0.987 | 0.419 | 1.1 | 0.691 |
| NCI-H1437 | 1.24 | 1.15 | 1.15 | 1.09 | 0.931 | 0.868 | 0.973 | 0.788 | 1.06 | 0.815 | 0.839 | 0.79 | 1.3 | 1.13 | 1.21 | 1.02 | 1.17 | 0.83 | 1.02 |
| NCI-H1651 | 0.495 | 0.452 | 0.518 | 0.422 | 0.577 | 0.571 | 0.781 | 0.539 | 1.1 | 1.05 | 0.881 | 0.854 | 1.01 | 0.822 | 0.985 | 0.856 | 0.53 | 1.02 | 0.953 |
| NCI-H1666 | 0.844 | 0.819 | 0.84 | 0.795 | 0.797 | 0.851 | 0.847 | 0.744 | 0.711 | 0.57 | 0.675 | 0.646 | 0.991 | 0.898 | 1 | 1 | 0.877 | 0.604 | 0.962 |
| NCI-H1734 | 0.699 | 0.484 | 0.603 | 0.531 | 0.608 | 0.638 | 0.604 | 0.377 | 1.23 | 1.09 | 1.08 | 1.06 | 0.193 | 0.193 | 0.209 | 0.187 | 0.5 | 1.22 | 0.161 |
| NCI-H1755 | 0.473 | 0.425 | 0.516 | 0.474 | 0.662 | 0.731 | 0.754 | 0.666 | 1.27 | 1.09 | 1.29 | 1.1 | 0.463 | 0.755 | 0.539 | 0.56 | 0.455 | 0.937 | 0.456 |
| NCI-H1792 | 0.854 | 1.1 | 0.68 | 0.6 | – | 0.701 | 1.12 | 0.751 | 0.913 | 1.45 | 1.03 | 0.967 | 0.406 | 0.451 | 0.425 | 0.55 | 0.69 | – | 0.537 |
| NCI-H1793 | 0.557 | 0.319 | 0.748 | 0.436 | 0.282 | 0.289 | 0.26 | 0.277 | 0.827 | 0.83 | 0.933 | 0.727 | 0.421 | 0.201 | 0.251 | 0.191 | – | 0.945 | 0.156 |
| NCI-H1915 | 0.747 | 0.687 | 0.704 | 0.733 | 0.677 | 0.606 | 0.69 | 0.586 | 1.19 | 1.01 | 1.09 | 0.997 | 1.31 | 0.912 | 0.841 | 0.988 | 0.728 | 0.867 | 0.87 |
| NCI-H1944 | 0.534 | 0.421 | 0.44 | 0.485 | 0.378 | 0.429 | 0.394 | 0.402 | 0.895 | 0.841 | 0.799 | 0.845 | 0.925 | 0.793 | 0.73 | 0.745 | 0.4 | 0.782 | 0.775 |
| NCI-H1975 | 0.964 | 0.778 | 0.701 | 0.766 | 0.733 | 0.644 | 0.606 | 0.493 | 1.27 | 0.92 | 1.11 | 0.982 | 0.237 | 0.169 | 0.198 | 0.464 | 0.799 | 0.958 | 0.244 |
| NCI-H1993 | 0.845 | 0.642 | 0.841 | 0.692 | 0.559 | 0.537 | 0.638 | 0.573 | 0.836 | 0.81 | 0.67 | 0.785 | 0.861 | 0.917 | 0.965 | 0.798 | 0.438 | 0.774 | 0.721 |
| NCI-H2085 | 1.11 | 0.996 | 1.12 | 0.987 | 0.857 | 0.808 | 0.689 | 0.87 | 0.889 | 0.74 | 0.754 | 0.835 | 0.498 | 0.427 | 0.518 | 0.434 | 1.04 | 0.804 | 0.48 |
| NCI-H2087 | 1.72 | 1.37 | 1.51 | 1.21 | 0.591 | 0.685 | 0.603 | 0.478 | 1 | 1.09 | 1.07 | 1.32 | 0.193 | 0.155 | 0.18 | 0.196 | 1.42 | 1.02 | 0.125 |
